{"source": "patent US20100076015A1", "about": "“Aminopyridine Derivatives” (VANTIA LIMITED, priority 2008, published 2010)", "molecular_target": "T1, Human KLK1 (Homo sapiens, UniProt P06870)", "T1 construct": "purchased Callbiochem (Calbiochem)", "T1 sequence (P06870 25-262)": "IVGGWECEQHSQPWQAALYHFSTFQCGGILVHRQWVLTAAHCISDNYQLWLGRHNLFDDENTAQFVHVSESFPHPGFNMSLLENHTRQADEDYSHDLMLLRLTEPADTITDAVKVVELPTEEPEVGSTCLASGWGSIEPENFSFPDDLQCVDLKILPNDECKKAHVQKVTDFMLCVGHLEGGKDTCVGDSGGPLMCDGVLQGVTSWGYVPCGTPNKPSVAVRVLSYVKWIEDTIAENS", "assay": "Determination of the IC50 for KLK1 (fluorogenic substrate H-DVal-Leu-Arg-AFC)", "type": "biochemical", "settings": "37° C.", "how_it_was_run": "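Test compound at various concentrations was incubated with human KLK1 and the fluorogenic substrate H-DVal-Leu-Arg-AFC at 37° C. Absorbance change at 410 nm gave the initial reaction rate, from which IC50 was obtained.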"}
{"smiles": "CNCC(=O)N[C@@H](C(=O)NCc1ccc(N)nc1)C(C1CCCCC1)C1CCCCC1", "note": "[Example 221, (R)—N-(6-Amino-pyridin-3-ylmethyl)-3,3-dicyclohexyl-2-(2-methylamino-acetylamino)-propionamide]", "values": [{"measurement": "IC50", "result": 50.5, "unit": "nM"}]}
{"smiles": "CN(C)CC(=O)N[C@@H](C(=O)NCc1ccc(N)nc1)C(C1CCCCC1)C1CCCCC1", "note": "[Example 222, (R)—N-(6-Amino-pyridin-3-ylmethyl)-3,3-dicyclohexyl-2-(2-dimethylamino-acetylamino)-propionamide]", "values": [{"measurement": "IC50", "result": 39.7, "unit": "nM"}]}
{"smiles": "CN1CCC[C@H]1C(=O)N[C@@H](C(=O)NCc1ccc(N)nc1)C(C1CCCCC1)C1CCCCC1", "note": "[Example 223, (S)-1-Methyl-pyrrolidine-2-carboxylic acid {(R)-1-[(6-amino-pyridin-3-ylmethyl)-carbamoyl]-2,2-dicyclohexyl-ethyl}-amide]", "values": [{"measurement": "IC50", "result": 17.4, "unit": "nM"}]}
{"smiles": "CCC(C)[C@H](N)C(=O)N[C@@H](C(=O)NCc1ccc(N)nc1)[C@H](O)c1ccccc1", "note": "(stereo partly drawn) [Example 224, (S)-2-Amino-3-methyl-pentanoic acid {(1R,2R)-1-[(6-amino-pyridin-3-ylmethyl)-carbamoyl]-2-hydroxy-2-phenyl-ethyl}-amide]", "values": [{"measurement": "IC50", "result": 61.6, "unit": "nM"}]}
{"smiles": "CN1CCC[C@@H]1C(=O)N(C)[C@@H](Cc1ccccc1)C(=O)NCc1ccc(N)nc1", "note": "[Example 225, (R)-1-Methyl-pyrrolidine-2-carboxylic acid {(S)-1-[(6-amino-pyridin-3-ylmethyl)-carbamoyl]-2-phenyl-ethyl}-methyl-amide]", "values": [{"measurement": "IC50", "result": 51.1, "unit": "nM"}]}
{"smiles": "Cc1[nH]c(C(=O)N[C@@H](Cc2cccc(C(F)(F)F)c2)C(=O)NCc2ccc(N)nc2)c(C)c1C", "note": "[Example 230, 3,4,5-Trimethyl-1H-pyrrole-2-carboxylic acid [(S)-1-[(6-amino-pyridin-3-ylmethyl)-carbamoyl]-2-(3-trifluoromethyl-phenyl)-ethyl]-amide]", "values": [{"measurement": "IC50", "result": 20.3, "unit": "nM"}]}
{"smiles": "Cc1cc(C)c(C(=O)N[C@@H](Cc2cccc(F)c2)C(=O)NCc2ccc(N)nc2)[nH]1", "note": "[Example 236, 3,5-Dimethyl-1H-pyrrole-2-carboxylic acid [(S)-1-[(6-amino-pyridin-3-ylmethyl)-carbamoyl]-2-(3-fluoro-phenyl)-ethyl]-amide]", "values": [{"measurement": "IC50", "result": 9, "unit": "nM"}]}
{"smiles": "Cc1cc(C)c(C(=O)N[C@@H](Cc2ccccc2)C(=O)NCc2ccc(N)nc2)[nH]1", "note": "[Example 237, 3,5-Dimethyl-1H-pyrrole-2-carboxylic acid {(S)-1-[(6-amino-pyridin-3-ylmethyl)-carbamoyl]-2-phenyl-ethyl}-amide]", "values": [{"measurement": "IC50", "result": 10.9, "unit": "nM"}]}
{"smiles": "Cc1cc(C)c(C(=O)N[C@@H](CC2CCCCC2)C(=O)NCc2ccc(N)nc2)[nH]1", "note": "[Example 238, 3,5-Dimethyl-1H-pyrrole-2-carboxylic acid {(S)-1-[(6-amino-pyridin-3-ylmethyl)-carbamoyl]-2-cyclohexyl-ethyl}-amide]", "values": [{"measurement": "IC50", "result": 35.2, "unit": "nM"}]}
{"smiles": "Cc1cc(C)c(C(=O)N[C@@H](Cc2ccccc2Cl)C(=O)NCc2ccc(N)nc2)[nH]1", "note": "[Example 239, 3,5-Dimethyl-1H-pyrrole-2-carboxylic acid [(S)-1-[(6-amino-pyridin-3-ylmethyl)-carbamoyl]-2-(2-chloro-phenyl)-ethyl]-amide]", "values": [{"measurement": "IC50", "result": 6.5, "unit": "nM"}]}
{"smiles": "Cc1cc(C)c(C(=O)N[C@@H](Cc2ccccc2C(F)(F)F)C(=O)NCc2ccc(N)nc2)[nH]1", "note": "[Example 240, 3,5-Dimethyl-1H-pyrrole-2-carboxylic acid [(S)-1-[(6-amino-pyridin-3-ylmethyl)-carbamoyl]-2-(2-trifluoromethyl-phenyl)-ethyl]-amide]", "values": [{"measurement": "IC50", "result": 1.5, "unit": "nM"}]}
{"smiles": "Cc1cc(C)c(C(=O)N[C@@H](Cc2c[nH]c3ccccc23)C(=O)NCc2ccc(N)nc2)[nH]1", "note": "[Example 241, 3,5-Dimethyl-1H-pyrrole-2-carboxylic acid [(S)-1-[(6-amino-pyridin-3-ylmethyl)-carbamoyl]-2-(1H-indol-3-yl)-ethyl]-amide]", "values": [{"measurement": "IC50", "result": 3.8, "unit": "nM"}]}
{"smiles": "Cc1cc(C)c(C(=O)N[C@@H](Cc2ccccc2C)C(=O)NCc2ccc(N)nc2)[nH]1", "note": "[Example 244, 3,5-Dimethyl-1H-pyrrole-2-carboxylic acid {(S)-1-[(6-amino-pyridin-3-ylmethyl)-carbamoyl]-2-o-tolyl-ethyl}-amide]", "values": [{"measurement": "IC50", "result": 7.8, "unit": "nM"}]}
{"smiles": "Cc1cc(C)c(C(=O)N[C@@H](Cc2ccc(Cl)cc2)C(=O)NCc2ccc(N)nc2)[nH]1", "note": "[Example 246, 3,5-Dimethyl-1H-pyrrole-2-carboxylic acid [(S)-1-[(6-amino-pyridin-3-ylmethyl)-carbamoyl]-2-(4-chloro-phenyl)-ethyl]-amide]", "values": [{"measurement": "IC50", "result": 3.5, "unit": "nM"}]}
{"smiles": "Cc1cc(C)c(C(=O)N[C@@H](Cc2ccc(O)cc2)C(=O)NCc2ccc(N)nc2)[nH]1", "note": "[Example 247, 3,5-Dimethyl-1H-pyrrole-2-carboxylic acid [(S)-1-[(6-amino-pyridin-3-ylmethyl)-carbamoyl]-2-(4-hydroxy-phenyl)-ethyl]-amide]", "values": [{"measurement": "IC50", "result": 200, "unit": "nM"}]}
{"smiles": "Cc1cc(C)c(C(=O)N[C@@H](Cc2cc(F)cc(F)c2)C(=O)NCc2ccc(N)nc2)[nH]1", "note": "[Example 249, 3,5-Dimethyl-1H-pyrrole-2-carboxylic acid [(S)-1-[(6-amino-pyridin-3-ylmethyl)-carbamoyl]-2-(3,5-difluoro-phenyl)-ethyl]-amide]", "values": [{"measurement": "IC50", "result": 6.9, "unit": "nM"}]}
{"smiles": "Cc1cc(C)c(C(=O)N[C@@H](Cc2csc3ccccc23)C(=O)NCc2ccc(N)nc2)[nH]1", "note": "[Example 250, 3,5-Dimethyl-1H-pyrrole-2-carboxylic acid {(S)-1-[(6-amino-pyridin-3-ylmethyl)-carbamoyl]-2-benzo[b]thiophen-3-yl-ethyl}-amide]", "values": [{"measurement": "IC50", "result": 0.8, "unit": "nM"}]}
{"smiles": "Cc1cc(C)c(C(=O)N[C@@H](Cc2c(F)c(F)c(F)c(F)c2F)C(=O)NCc2ccc(N)nc2)[nH]1", "note": "[Example 251, 3,5-Dimethyl-1H-pyrrole-2-carboxylic acid {(S)-1-[(6-amino-pyridin-3-ylmethyl)-carbamoyl]-2-pentafluorophenyl-ethyl}-amide]", "values": [{"measurement": "IC50", "result": 128, "unit": "nM"}]}
{"smiles": "Cc1cc(C)c(C(=O)N[C@@H](Cc2ccc(-c3ccccc3)cc2)C(=O)NCc2ccc(N)nc2)[nH]1", "note": "[Example 252, 3,5-Dimethyl-1H-pyrrole-2-carboxylic acid {(S)-1-[(6-amino-pyridin-3-ylmethyl)-carbamoyl]-2-biphenyl-4-yl-ethyl}-amide]", "values": [{"measurement": "IC50", "result": 43.2, "unit": "nM"}]}
{"smiles": "Cc1ccc(C[C@H](NC(=O)c2[nH]c(C)cc2C)C(=O)NCc2ccc(N)nc2)cc1", "note": "[Example 253, 3,5-Dimethyl-1H-pyrrole-2-carboxylic acid {(S)-1-[(6-amino-pyridin-3-ylmethyl)-carbamoyl]-2-p-tolyl-ethyl}-amide]", "values": [{"measurement": "IC50", "result": 12.5, "unit": "nM"}]}
{"smiles": "COc1ccc(C[C@H](NC(=O)c2[nH]c(C)cc2C)C(=O)NCc2ccc(N)nc2)cc1", "note": "[Example 254, 3,5-Dimethyl-1H-pyrrole-2-carboxylic acid [(S)-1-[(6-amino-pyridin-3-ylmethyl)-carbamoyl]-2-(4-methoxy-phenyl)-ethyl]-amide]", "values": [{"measurement": "IC50", "result": 37.2, "unit": "nM"}]}
{"smiles": "CCOc1ccc(C[C@H](NC(=O)c2[nH]c(C)cc2C)C(=O)NCc2ccc(N)nc2)cc1", "note": "[Example 255, 3,5-Dimethyl-1H-pyrrole-2-carboxylic acid [(S)-1-[(6-amino-pyridin-3-ylmethyl)-carbamoyl]-2-(4-ethoxy-phenyl)-ethyl]-amide]", "values": [{"measurement": "IC50", "result": 105, "unit": "nM"}]}
{"smiles": "Cc1cc(C)c(C(=O)N[C@@H](Cc2ccc(C(C)(C)C)cc2)C(=O)NCc2ccc(N)nc2)[nH]1", "note": "[Example 256, 3,5-Dimethyl-1H-pyrrole-2-carboxylic acid [(S)-1-[(6-amino-pyridin-3-ylmethyl)-carbamoyl]-2-(4-tert-butyl-phenyl)-ethyl]-amide]", "values": [{"measurement": "IC50", "result": 122, "unit": "nM"}]}
{"smiles": "Cc1cc(C)c(C(=O)N[C@@H](Cc2ccc3ccccc3n2)C(=O)NCc2ccc(N)nc2)[nH]1", "note": "[Example 257, 3,5-Dimethyl-1H-pyrrole-2-carboxylic acid {(S)-1-[(6-amino-pyridin-3-ylmethyl)-carbamoyl]-2-quinolin-2-yl-ethyl}-amide]", "values": [{"measurement": "IC50", "result": 12.1, "unit": "nM"}]}
{"smiles": "Cc1cc[nH]c1C(=O)N[C@@H](Cc1ccc(C(F)(F)F)cc1)C(=O)NCc1ccc(N)nc1", "note": "[Example 258, 3-Methyl-1H-pyrrole-2-carboxylic acid [(S)-1-[(6-amino-pyridin-3-ylmethyl)-carbamoyl]-2-(4-trifluoromethyl-phenyl)-ethyl]-amide]", "values": [{"measurement": "IC50", "result": 10.3, "unit": "nM"}]}
{"smiles": "Cc1c[nH]c(C(=O)N[C@@H](Cc2cccc(Cl)c2)C(=O)NCc2ccc(N)nc2)c1", "note": "[Example 259, 4-Methyl-1H-pyrrole-2-carboxylic acid [(S)-1-[(6-amino-pyridin-3-ylmethyl)-carbamoyl]-2-(3-chloro-phenyl)-ethyl]-amide]", "values": [{"measurement": "IC50", "result": 85.4, "unit": "nM"}]}
{"smiles": "Cc1c[nH]c(C(=O)N[C@@H](Cc2ccc(F)cc2)C(=O)NCc2ccc(N)nc2)c1", "note": "[Example 260, 4-Methyl-1H-pyrrole-2-carboxylic acid [(S)-1-[(6-amino-pyridin-3-ylmethyl)-carbamoyl]-2-(4-fluoro-phenyl)-ethyl]-amide]", "values": [{"measurement": "IC50", "result": 150, "unit": "nM"}]}
{"smiles": "Cc1cc[nH]c1C(=O)N[C@@H](Cc1ccc(F)cc1)C(=O)NCc1ccc(N)nc1", "note": "[Example 261, 3-Methyl-1H-pyrrole-2-carboxylic acid [(S)-1-[(6-amino-pyridin-3-ylmethyl)-carbamoyl]-2-(4-fluoro-phenyl)-ethyl]-amide]", "values": [{"measurement": "IC50", "result": 13.2, "unit": "nM"}]}
{"smiles": "Cc1cc[nH]c1C(=O)N[C@@H](Cc1ccccc1Cl)C(=O)NCc1ccc(N)nc1", "note": "[Example 262, 3-Methyl-1H-pyrrole-2-carboxylic acid [(S)-1-[(6-amino-pyridin-3-ylmethyl)-carbamoyl]-2-(2-chloro-phenyl)-ethyl]-amide]", "values": [{"measurement": "IC50", "result": 28.3, "unit": "nM"}]}
{"smiles": "Cc1cc[nH]c1C(=O)N[C@@H](Cc1cc(Cl)ccc1Cl)C(=O)NCc1ccc(N)nc1", "note": "[Example 263, 3-Methyl-1H-pyrrole-2-carboxylic acid [(S)-1-[(6-amino-pyridin-3-ylmethyl)-carbamoyl]-2-(2,5-dichloro-phenyl)-ethyl]-amide]", "values": [{"measurement": "IC50", "result": 20.5, "unit": "nM"}]}
{"smiles": "Cc1cc[nH]c1C(=O)N[C@@H](Cc1ccc(Cl)c(Cl)c1)C(=O)NCc1ccc(N)nc1", "note": "[Example 264, 3-Methyl-1H-pyrrole-2-carboxylic acid [(S)-1-[(6-amino-pyridin-3-ylmethyl)-carbamoyl]-2-(3,4-dichloro-phenyl)-ethyl]-amide]", "values": [{"measurement": "IC50", "result": 3.1, "unit": "nM"}]}
